The values that follow come from patent publication US20260217703A1, “INHIBITORS OF a-HEMOL YSIN OF STAPHYLOCOCCUS AUREUS” (HELMHOLTZ-ZENTRUM FÜR INFEKTIONSFORSCHUNG GMBH, priority 2022, published 2026).

The target of assay [1] is hemolysin alpha from Staphylococcus aureus (Staphylococcus aureus, UniProt P09616). Description: cell-based.
The target in assay [2] is S. aureus Alpha hemolysin (Staphylococcus aureus, UniProt P09616). In words: cell-based.
Sequence of S. aureus Alpha hemolysin (P09616 27-319 limits assumed): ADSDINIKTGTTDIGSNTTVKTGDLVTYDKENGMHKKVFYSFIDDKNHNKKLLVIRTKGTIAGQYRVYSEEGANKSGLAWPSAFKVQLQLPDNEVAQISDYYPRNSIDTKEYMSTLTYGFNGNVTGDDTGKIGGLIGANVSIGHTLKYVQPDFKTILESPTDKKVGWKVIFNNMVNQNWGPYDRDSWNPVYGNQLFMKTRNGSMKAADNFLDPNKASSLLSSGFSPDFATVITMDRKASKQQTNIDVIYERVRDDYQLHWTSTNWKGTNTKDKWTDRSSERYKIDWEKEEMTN

Sequence of hemolysin alpha from Staphylococcus aureus (P09616 27-319 limits assumed): as above

A word on the IC50: it is the concentration that gives 50% inhibition. Low values mean higher potency, high ones lower potency. With `Cc1cc2[nH]c(=O)c(=O)[nH]c2nc1S(=O)(=O)Nc1ccc(-c2ccc(F)cc2)c(Cl)c1` [Compound 9, N-(2-chloro-4′-fluoro-[1,1′-biphenyl]-4-yl)-7-methyl-2,3-dioxo-1,2,3,4-tetrahydropyrido[2,3-b]pyrazine-6-sulfonamide], the IC50 in assay [1] is below 30 nM; in assay [2] it was 100 to 1000 nM.

On to `Cc1nc2cc(-c3ccc(NS(=O)(=O)c4nc5[nH]c(=O)c(=O)[nH]c5cc4C)cc3Cl)ccc2o1` [Compound 15, N-(3-chloro-4-(2-methylbenzo[d]oxazol-5-yl)phenyl)-7-methyl-2,3-dioxo-1,2,3,4-tetrahydropyrido[2,3-b]pyrazine-6-sulfonamide], for which the half-maximal inhibitory concentration (IC50) in assay [1] is below 30 nM; in assay [2], 30 to 100 nM.

On to `Cc1cc2[nH]c(=O)c(=O)[nH]c2nc1S(=O)(=O)Nc1ccc(-c2ccc3cc[nH]c3c2)c(Cl)c1` [Compound 16, N-(3-chloro-4-(1H-indol-6-yl)phenyl)-7-methyl-2,3-dioxo-1,2,3,4-tetrahydropyrido[2,3-b]pyrazine-6-sulfonamide], for which the IC50 in assay [1] is below 30 nM; in assay [2] it was 100 to 1000 nM.

Take `C=C(C)c1cc2[nH]c(=O)c(=O)[nH]c2nc1S(=O)(=O)Nc1ccc(OC(F)(F)F)cc1` [Compound 27, 2,3-dioxo-7-(prop-1-en-2-yl)-N-(4-(trifluoromethoxy)phenyl)-1,2,3,4-tetrahydropyrido[2,3-b]pyrazine-6-sulfonamide]: the IC50 in assay [1] and in assay [2] was below 30 nM each time.

For `Cc1cc2[nH]c(=O)c(=O)[nH]c2nc1S(=O)(=O)Nc1ccc(C(C)C)cc1` [Compound 19, N-(4-isopropylphenyl)-7-methyl-2,3-dioxo-1,2,3,4-tetrahydropyrido[2,3-b]pyrazine-6-sulfonamide], the IC50 in assay [1] and in assay [2] was 100 to 1000 nM each time.

As to `Cc1cc2[nH]c(=O)c(=O)[nH]c2nc1S(=O)(=O)Nc1ccc(-c2ccc(F)c(Cl)c2)c(Cl)c1` [Compound 10, N-(2,3′-dichloro-4′-fluoro-[1,1′-biphenyl]-4-yl)-7-methyl-2,3-dioxo-1,2,3,4-tetrahydropyrido[2,3-b]pyrazine-6-sulfonamide], the results for the 50% inhibitory concentration (IC50) in assay [1] and in assay [2] were 30 to 100 nM and 1000 to 6000 nM, respectively.

Turning to `Cc1cc(NS(=O)(=O)c2nc3[nH]c(=O)c(=O)[nH]c3cc2C)ccc1Br` [Compound 18, N-(4-bromo-3-methylphenyl)-7-methyl-2,3-dioxo-1,2,3,4-tetrahydropyrido[2,3-b]pyrazine-6-sulfonamide], the IC50 in assay [1] and in assay [2] was 100 to 1000 nM in each case.

As to `O=c1[nH]c2cc(Br)c(S(=O)(=O)Nc3ccc(OC(F)(F)F)cc3)nc2[nH]c1=O` [Compound 25, 7-bromo-2,3-dioxo-N-(4-(trifluoromethoxy)phenyl)-1,2,3,4-tetrahydropyrido[2,3-b]pyrazine-6-sulfonamide], the IC50 in assay [1] lay within 30 to 100 nM; in assay [2], 100 to 1000 nM.

Take `Cc1cc2[nH]c(=O)c(=O)[nH]c2nc1S(=O)(=O)Nc1cnc(-c2ccc3c(c2)NC(=O)CO3)c(Cl)c1` [Compound 36, N-(5-chloro-6-(3-oxo-3,4-dihydro-2H-benzo[b][1,4]oxazin-6-yl)pyridin-3-yl)-7-methyl-2,3-dioxo-1,2,3,4-tetrahydropyrido[2,3-b]pyrazine-6-sulfonamide]: the 50% inhibitory concentration (IC50) in assay [1] lay in the range of 30 to 100 nM; in assay [2] it was 1000 to 6000 nM.

In the case of `Cc1cc2[nH]c(=O)c(=O)[nH]c2nc1S(=O)(=O)Nc1ccc(-c2ccc(F)cc2)c(C(F)(F)F)c1` [Compound 32, N-(4′-fluoro-2-(trifluoromethyl)-[1,1′-biphenyl]-4-yl)-7-methyl-2,3-dioxo-1,2,3,4-tetrahydropyrido[2,3-b]pyrazine-6-sulfonamide], the IC50 in assay [1] and in assay [2] was 100 to 1000 nM in each case.

In the case of `Cc1nc2ccc(-c3ccc(NS(=O)(=O)c4ccc5[nH]c(=O)c(=O)[nH]c5n4)cc3Cl)cc2o1` [Compound 28, N-(3-chloro-4-(2-methylbenzo[d]oxazol-6-yl)phenyl)-2,3-dioxo-1,2,3,4-tetrahydropyrido[2,3-b]pyrazine-6-sulfonamide], the concentration for half-maximal inhibition (IC50) was below 30 nM in assay [1] and 100 to 1000 nM in assay [2].

For the molecule `O=c1[nH]c2ccc(S(=O)(=O)Nc3ccc(OC(F)(F)F)cc3)nc2[nH]c1=O` [Compound 26, 2,3-dioxo-N-(4-(trifluoromethoxy)phenyl)-1,2,3,4-tetrahydropyrido[2,3-b]pyrazine-6-sulfonamide], the 50% inhibitory concentration (IC50) in assay [1] and in assay [2] was 100 to 1000 nM in each case.

For the molecule `Cc1cc2[nH]c(=O)c(=O)[nH]c2nc1S(=O)(=O)Nc1cnc(-c2cncc(Cl)c2)c(Cl)c1` [Compound 13, N-(3,5′-dichloro-[2,3′-bipyridin]-5-yl)-7-methyl-2,3-dioxo-1,2,3,4-tetrahydropyrido[2,3-b]pyrazine-6-sulfonamide], the IC50 in assay [1] lay within 1000 to 3500 nM.

Take `Cc1cc2[nH]c(=O)c(=O)[nH]c2nc1S(=O)(=O)Nc1ccc(C2CCC2)cc1` [Compound 21, N-(4-cyclobutylphenyl)-7-methyl-2,3-dioxo-1,2,3,4-tetrahydropyrido[2,3-b]pyrazine-6-sulfonamide]: the 50% inhibitory concentration (IC50) is below 30 nM in assay [1] and 30 to 100 nM in assay [2].

On to `Cc1cc2[nH]c(=O)c(=O)[nH]c2nc1S(=O)(=O)Nc1ccc(C23CC(C2)C3)cc1` [Compound 23, N-(4-(bicyclo[1.1.1]pentan-1-yl)phenyl)-7-methyl-2,3-dioxo-1,2,3,4-tetrahydropyrido[2,3-b]pyrazine-6-sulfonamide], for which the IC50 in assay [1] was below 30 nM; in assay [2], 100 to 1000 nM.

For the molecule `Cc1cc2[nH]c(=O)c(=O)[nH]c2nc1S(=O)(=O)Nc1ccc2ccccc2c1` [Compound 24, 7-methyl-N-(naphthalen-2-yl)-2,3-dioxo-1,2,3,4-tetrahydropyrido[2,3-b]pyrazine-6-sulfonamide], the IC50 in assay [1] and in assay [2] was 100 to 1000 nM throughout.

`Cc1nc2cc(-c3ccc(NS(=O)(=O)c4nc5[nH]c(=O)c(=O)[nH]c5cc4C)cc3C)ccc2o1` [Compound 40, 7-methyl-N-(3-methyl-4-(2-methylbenzo[d]oxazol-5-yl)phenyl)-2,3-dioxo-1,2,3,4-tetrahydropyrido[2,3-b]pyrazine-6-sulfonamide]: the 50% inhibitory concentration (IC50) in assay [1] is below 30 nM; in assay [2], 30 to 100 nM.

For the molecule `Cc1cc2[nH]c(=O)c(=O)[nH]c2nc1S(=O)(=O)Nc1ccc(-c2ccc3oc(C(C)C)nc3c2)c(Cl)c1` [Compound 37, N-(3-chloro-4-(2-isopropylbenzo[d]oxazol-5-yl)phenyl)-7-methyl-2,3-dioxo-1,2,3,4-tetrahydropyrido[2,3-b]pyrazine-6-sulfonamide], the IC50 in assay [1] was below 30 nM; in assay [2], 100 to 1000 nM.

As for `CC(C)c1cc2[nH]c(=O)c(=O)[nH]c2nc1S(=O)(=O)Nc1ccc(OC(F)(F)F)cc1` [Compound 34, 7-isopropyl-2,3-dioxo-N-(4-(trifluoromethoxy)phenyl)-1,2,3,4-tetrahydropyrido[2,3-b]pyrazine-6-sulfonamide], the 50% inhibitory concentration (IC50) in assay [1] fell in the range of 30 to 100 nM; in assay [2] it was 100 to 1000 nM.

Take `Cc1cc2[nH]c(=O)c(=O)[nH]c2nc1S(=O)(=O)Nc1ccc(C2=CCCCC2)cc1` [Compound 20, 7-methyl-2,3-dioxo-N-(2′,3′,4′,5′-tetrahydro-[1,1′-biphenyl]-4-yl)-1,2,3,4-tetrahydropyrido[2,3-b]pyrazine-6-sulfonamide]: the IC50 in assay [1] and in assay [2] was 100 to 1000 nM each time.

For `Cc1nc2cc(-c3ncc(NS(=O)(=O)c4ccc5[nH]c(=O)c(=O)[nH]c5n4)cc3Cl)ccc2o1` [Compound 31, N-(5-chloro-6-(2-methylbenzo[d]oxazol-5-yl)pyridin-3-yl)-2,3-dioxo-1,2,3,4-tetrahydropyrido[2,3-b]pyrazine-6-sulfonamide], the IC50 lay in the range of 100 to 1000 nM in assay [1] and 1000 to 6000 nM in assay [2].

For the molecule `Cc1nc2ccc(-c3ccc(NS(=O)(=O)c4ccc5[nH]c(=O)c(=O)[nH]c5n4)cc3Cl)cc2[nH]1` [Compound 30, N-(3-chloro-4-(2-methyl-1H-benzo[d]imidazol-6-yl)phenyl)-2,3-dioxo-1,2,3,4-tetrahydropyrido[2,3-b]pyrazine-6-sulfonamide], the half-inhibitory concentration (IC50) in assay [1] fell in the range of 1000 to 3500 nM.

As to `Cc1cc2[nH]c(=O)c(=O)[nH]c2nc1S(=O)(=O)Nc1cnc(-c2ccc(F)cc2)c(Cl)c1` [Compound 12, N-(5-chloro-6-(4-fluorophenyl)pyridin-3-yl)-7-methyl-2,3-dioxo-1,2,3,4-tetrahydropyrido[2,3-b]pyrazine-6-sulfonamide], the IC50 in assay [1] lay in the range of 30 to 100 nM; in assay [2], 1000 to 6000 nM.

Turning to `Cc1nc2cc(-c3ccc(NS(=O)(=O)c4nc5[nH]c(=O)c(=O)[nH]c5cc4C)cc3Cl)cnc2o1` [Compound 39, N-(3-chloro-4-(2-methyloxazolo[5,4-b]pyridin-6-yl)phenyl)-7-methyl-2,3-dioxo-1,2,3,4-tetrahydropyrido[2,3-b]pyrazine-6-sulfonamide], the results for the IC50 in assay [1] and in assay [2] were below 30 nM and 30 to 100 nM, respectively.

For the molecule `Cc1cc(NS(=O)(=O)c2nc3[nH]c(=O)c(=O)[nH]c3cc2C)ccc1-c1ccc(F)cc1` [Compound 33, N-(4′-fluoro-2-methyl-[1,1′-biphenyl]-4-yl)-7-methyl-2,3-dioxo-1,2,3,4-tetrahydropyrido[2,3-b]pyrazine-6-sulfonamide], the 50% inhibitory concentration (IC50) in assay [1] was 100 to 1000 nM; in assay [2], 30 to 100 nM.

Take `Cc1cc2[nH]c(=O)c(=O)[nH]c2nc1S(=O)(=O)Nc1ccc(-c2cncc(Cl)c2)c(Cl)c1` [Compound 11, N-(3-chloro-4-(5-chloropyridin-3-yl)phenyl)-7-methyl-2,3-dioxo-1,2,3,4-tetrahydropyrido[2,3-b]pyrazine-6-sulfonamide]: the IC50 in assay [1] and in assay [2] was 100 to 1000 nM in each case.

On to `Cc1cc2[nH]c(=O)c(=O)[nH]c2nc1S(=O)(=O)Nc1ccc(OC(F)(F)F)cc1` [Compound 22, 7-methyl-2,3-dioxo-N-(4-(trifluoromethoxy)phenyl)-1,2,3,4-tetrahydropyrido[2,3-b]pyrazine-6-sulfonamide], for which the half-inhibitory concentration (IC50) in assay [1] and in assay [2] was below 30 nM each time.

Consider `Cc1cc2[nH]c(=O)c(=O)[nH]c2nc1S(=O)(=O)Nc1ccc(-c2ccc(C#N)cc2)c(Cl)c1` [Compound 17, N-(2-chloro-4′-cyano-[1,1′-biphenyl]-4-yl)-7-methyl-2,3-dioxo-1,2,3,4-tetrahydropyrido[2,3-b]pyrazine-6-sulfonamide], for which the IC50 in assay [1] fell in the range of 30 to 100 nM; in assay [2], 100 to 1000 nM.
